Data taken from EP2886536A1 (priority 2013, dated 2015).
Where a name gives a salt, the structure may show the parent alone.

How the values were obtained:
[1] = test system: SK-Mel3; assay: cells; assay type: cell-based; settings: Homo sapiens, SK-MEL3, 96 h, read-out: IC50 values
[2] = test system: HEL 92.1.7; assay: cells; assay type: cell-based; settings: Homo sapiens, HEL 92.1.7, 96 h, read-out: IC50 values
[3] = test system: Jurkat; assay: cells; assay type: cell-based; settings: Homo sapiens, 96 h, read-out: IC50 values
[4] = test system: U-937; assay: cells; assay type: cell-based; settings: Homo sapiens, U-937, 96 h, read-out: IC50 values
[5] = test system: Capan-1; assay: cells; assay type: cell-based; settings: Homo sapiens, CAPAN-1, 96 h, read-out: IC50 values
[6] = test system: LnCap clone FGC; assay: cells; assay type: cell-based; settings: Homo sapiens, 96 h, read-out: IC50 values
[7] = test system: NCl-H460; assay: cells; assay type: cell-based; settings: 96 h, read-out: IC50 values
[8] = test system: HT-29; assay: cells; assay type: cell-based; settings: Homo sapiens, HT-29, 96 h, read-out: IC50 values
[9] = test system: MG-63; assay: cells; assay type: cell-based; settings: Homo sapiens, MG-63, 96 h, read-out: IC50 values
[10] = test system: SK-ES1; assay: cells; assay type: cell-based; settings: Homo sapiens, SK-ES1, 96 h, read-out: IC50 values
[11] = physchem; settings: buffer, pH 7.2
[12] = in vitro; settings: mouse, plasma
[13] = in vitro; settings: human, plasma

Row | SMILES | IC50 [1] [µM] | IC50 [2] [µM] | IC50 [3] [µM] | IC50 [4] [µM] | IC50 [5] [µM] | IC50 [6] [µM] | IC50 [7] [µM] | IC50 [8] [µM] | IC50 [9] [µM] | IC50 [10] [µM] | half-life [11] [min] | half-life [12] [min] | half-life [13] [min]
1 | Cn1c(CCCC(=O)O)nc2cc(N(CCCl)CCCl)ccc21 [bendamustine-HCl, 4-{5-[bis(2-chloroethyl)amino]-1-methyl-1H-benzimidazol-2-yl}butanoic acid, reference compound] | > 100 | 84 ± 7.7 | 42.6 ± 5.6 | 91.9 ± 16.4 | 25.2 ± 5.4 | 71.6 ± 5.4 | 89.5 ± 10.4 | > 100 | 55 ± 3.3 | 11 ± 1.6 | 10.8 ± 2.9 | 35 ± 2.2 | 131 ± 10.2
2 | CCOC(=O)CCCc1nc2ccc(N(CCCl)CCCl)cc2n1C [iso-bendamustine ethyl ester, ethyl 4-{6-[bis(2-chloroethyl)amino]-1-methyl-1H-benzimidazol-2-yl}butanoate] | 11.7 ± 2.5 | 3.5 ± 0.3 | 3.9 ± 0.3 | 1.6 ± 0.03 | 0.91 ± 0.15 | 1.5 ± 0.34 | 5.4 ± 0.2 | 11 ± 1.1 | 1.9 ± 0.1 | 0.24 ± 0.04 | 15.3 ± 3.8 | < 2 | 141 ± 6.3
3 | Cl.Cn1c(CCCC(=O)O)nc2ccc(N(CCCl)CCCl)cc21 [iso-bendamustine-HCl, 4-{6-[bis(2-chloroethyl)amino]-1-methyl-1H-benzimidazol-2-yl)butanoic acid hydrochloride] | > 100 | 76.5 ± 4.5 | 59.5 ± 4 | 59.8 ± 5.2 | 24.6 ± 4.4 | 18.9 ± 2.6 | > 100 | > 100 | 50.1 ± 5.5 | 9.6 ± 1.5 | 11.6 ± 1.9 | 60.5 ± 2.7 | 83.8 ± 9.3
